Reference: patent US6825230B2, “Spiro and dispiro 1,2,4-trixolane antimalarials” (Medicines for Malaria Venture MMV, priority 2002, dated 2004)
In brackets after ≈: the same amount, converted by molar mass.

How the values were obtained:
[1] = tested on: chloroquine-resistant K1 strain of P. falciparum; assay: In vitro antimalarial semiautomated microdilution assay ([3H]-hypoxanthine incorporation), K1 strain; assay type: cell-based, Plasmodium falciparum; details: Plasmodium falciparum; chloroquine-resistant K1 strain, 72 h incubation; read-out: IC50 (ng/ml) K1
Summary of the method: (§1)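 IC50 comes from Logit regression of [3H]-hypoxanthine incorporation data. Intraerythrocytic P. falciparum taken from asynchronous stock cultures is exposed to OZ compounds in a semiautomated microdilution format.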

[2] = tested on: chloroquine-sensitive NF54 strain of P. falciparum; assay: In vitro antimalarial semiautomated microdilution assay ([3H]-hypoxanthine incorporation), NF54 strain; assay type: cell-based, Plasmodium falciparum; details: Plasmodium falciparum; chloroquine-sensitive NF54 strain, 72 h incubation; read-out: IC50 (ng/ml) NF54
Summary of the method: as §1

[3] = tested on: ANKA strain of P. berghei; assay: Single dose STI in vivo screen in infected mice; design: species or system Plasmodium berghei; details: 10 mg/kg
[4] = tested on: Schistosoma mansoni adult worms (49-day-old); assay: Effect on adult schistosomes (49-day-old) in infected mice; assay type: in vivo
Procedure: Mice were infected with 100 Schistosoma mansoni cercariae on day 49 post-treatment. Each group was treated per os with OZ compounds at single doses of 200, 400, and 600 mg/kg. Untreated mice served as the control. All groups were killed 4 weeks after treatment and the liver and intestine were removed and separated. The liver and intestine were compressed and alive male and female worms could be seen and counted.

[5] = tested on: ANKA strain of Plasmodium berghei; assay: Single dose ED50/ED90/ED99 determination in infected mice; assay type: in vivo
Summary of the method: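 Moro SPF or NMRI mice (three per group) infected with P. berghei ANKA were dosed once on day 1 post-infection in SSV (0.5% CMC, 0.5% benzyl alcohol, 0.4% Tween 80, 0.9% NaCl). Parasitemia reduction was scored on day 3; ED values (mg/kg) came from nonlinear fitting.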

[6] = Pharmacokinetics in rats (IV and oral dosing); details: rat, in vivo
Text: (§2) Artesunate is listed as a reference compound.

[7] = Pharmacokinetics in dogs (IV and oral dosing); details: in vivo, dog; for bioavailability: some values marked (V), not defined
Text: as §2

P. berghei ANKA strain [8] = assay: Divided 3x10 mg/kg vs single 1x30 mg/kg po dose in infected mice; assay type: in vivo, Plasmodium berghei
P. berghei ANKA strain [9] = assay: Divided 3x3 mg/kg and 3x1 mg/kg po doses in infected mice; assay type: in vivo, Plasmodium berghei
Summary of the method: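 Male NMRI mice were infected i.v. with 2×10^7 P. berghei-parasitized erythrocytes on day 0, then dosed orally in SSV vehicle on days 1, 2 and 3 post-infection.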

P. berghei ANKA strain [10] = assay: Prophylactic activity, single 100 mg/kg po at various times before infection; assay type: in vivo, Plasmodium berghei

NC[C@H]1CC[C@]2(CC1)OOC1(O2)C2CC3CC(C2)CC1C3 (stereo partly drawn) [OZ209]
IC50 [1]: 0.21 ng/mL (≈ 0.716 nM) | IC50 [2]: 0.32 ng/mL (≈ 1.09 nM) | Survival (days) 10 mg/kg po ([3]; single 10 mg/kg po in 3% ethanol and 7% Tween 80, untreated 6-7 days): 9.5 days | Activity (%) 10 mg/kg po ([3]; single 10 mg/kg po in 3% ethanol and 7% Tween 80 on day 1 post-infection, percent reduction in parasitemia on day 3): 99.94% | Survival (days) 10 mg/kg SSV po ([3]; single 10 mg/kg po in SSV, untreated 6-7 days): 10.0 days | Activity (%) 10 mg/kg SSV po ([3]; single 10 mg/kg po in standard suspending vehicle (SSV) on day 1 post-infection, percent reduction in parasitemia on day 3): 99.96% | Survival (days) 10 mg/kg sc ([3]; single 10 mg/kg sc in 3% ethanol and 7% Tween 80, untreated 6-7 days): 12.5 days | Activity (%) 10 mg/kg sc ([3]; single 10 mg/kg sc in 3% ethanol and 7% Tween 80 on day 1 post-infection, percent reduction in parasitemia on day 3): 99.97% | % reduction of adult worms growth at day 49 after per os application of 200 mg/kg, TWR (%) ([4]; single 200 mg/kg per os, 49-day-old adults, total worm reduction rate): 39% | Adult worms day 49, per os 200 mg/kg, DEAD WORM (%) ([4]; single 200 mg/kg per os, percentage of dead worm in the liver): 34% | % reduction of adult worms growth at day 49 after per os application of 400 mg/kg, TWR (%) ([4]; single 400 mg/kg per os, 49-day-old adults, total worm reduction rate): 16% | Adult worms day 49, per os 400 mg/kg, DEAD WORM (%) ([4]; single 400 mg/kg per os, percentage of dead worm in the liver): 28% | % reduction of adult worms growth at day 49 after per os application of 600 mg/kg, TWR (%) ([4]; single 600 mg/kg per os, 49-day-old adults, total worm reduction rate): 41/ % | Adult worms day 49, per os 600 mg/kg, DEAD WORM (%) ([4]; single 600 mg/kg per os, percentage of dead worm in the liver): 21++ % | ED50 ([5]; Plasmodium berghei, single dose po in SSV on day 1 post-infection, parasitemia day 3, nonlinear fitting, read-out: ED50): 0.55 mg/kg | ED90 ([5]; po): 1.4 mg/kg | ED99 ([5]; single dose po in SSV on day 1 post-infection, parasitemia day 3, nonlinear fitting): 3.0 mg/kg | half-life ([6]; iv, 10 mg/kg): 2.5 h | bioavailability ([6]; po, 10 mg/kg): 12.4% | bioavailability ([6]; po, 25 mg/kg): 22.4% | half-life ([6]; po, 25 mg/kg): 1.69 h | half-life ([7]; IV 10 mg/kg): 3.05 h | half-life ([7]; oral 10 mg/kg): 2.12 h | bioavailability ([7]; oral 10 mg/kg, read-out: Dog Oral Bioavailability 10 mg/kg): 24.5% | bioavailability ([7]; oral 25 mg/kg, read-out: Dog Oral Bioavailability 25 mg/kg): 15.9% | Survival (days) 3 × 10 mg/kg p.o. SSV (P. berghei ANKA strain [8]; 10 mg/kg po on days 1, 2, 3 post-infection): >30 days | Activity (%) 3 × 10 mg/kg p.o. SSV (P. berghei ANKA strain [8]; po, 10 mg/kg, 96 h): 100% | Cures 3 × 10 mg/kg p.o. SSV (P. berghei ANKA strain [8]; po, 10 mg/kg, 720 h): 3\3 | Activity (%) 1 × 30 mg/kg p.o. SSV (P. berghei ANKA strain [8]; po, 30 mg/kg): 100% | Cures 1 × 30 mg/kg p.o. SSV (P. berghei ANKA strain [8]; po, 30 mg/kg, 720 h): 0/5 | Survival (days) 1 × 30 mg/kg p.o. SSV (P. berghei ANKA strain [8]; single 30 mg/kg po on day 1 post-infection): >30 days | Activity at the 3×3 mg/kg dose (P. berghei ANKA strain [9]; 3 mg/kg po (SSV) on days 1, 2, 3 post-infection, parasitemia reduction on day 4): 100% | Survival (P. berghei ANKA strain [9]; 3 × 1 mg/kg p.o. SSV on days 1, 2, 3 post-infection): 9.4 days | Survival (P. berghei ANKA strain [9]; 3 × 3 mg/kg p.o. SSV on days 1, 2, 3 post-infection): 16.4 days | Activity (%) (P. berghei ANKA strain [9]; 3 × 3 mg/kg p.o. SSV on days 1, 2, 3 post-infection, percent reduction of parasitemia vs control on day 4): 100% | Activity (%) (P. berghei ANKA strain [9]; po, 1 mg/kg, 96 h): 99.51% | Cures (P. berghei ANKA strain [9]; po, 3 mg/kg, 720 h): 0\5 | Prophylactic Activity (%) 72 h (P. berghei ANKA strain [10]; po, 100 mg/kg): 99.92% | Duration of prophylactic protection (P. berghei ANKA strain [10]; single 100 mg/kg po): 3 days | Prophylactic Activity (%) 24 h (P. berghei ANKA strain [10]; single 100 mg/kg po 24 h before infection, parasitemia reduction on day 3 post-infection): 100% | Prophylactic Activity (%) 48 h (P. berghei ANKA strain [10]; single 100 mg/kg po 48 h before infection, parasitemia reduction on day 3 post-infection): 99.9% | Prophylactic Activity (%) 0 h (P. berghei ANKA strain [10]; single 100 mg/kg po at 0 h, parasitemia reduction on day 3 post-infection): 100%
